This is an account of results in patent publication EP2033955A1, “Urea derivatives of 1H-pyrazol-4-carboxylic acid with neutrophil chemotaxis inhibiting activity” (Universita' Degli Studi Di Genova, priority 2007, dated 2009).

Test [1] relates to human peripheral blood neutrophils. Put plainly: Inhibition of fMLP-induced neutrophil chemotaxis (48-well microchemotaxis chamber, leading-front method). It counts as cell-based. The note with it: for IC50: read-out: Inhibition of the migration of neutrophils induced by fMLP CI50; for Percentage in brackets after the fMLP CI50 bound: meaning of the percentage not explained. On the procedure:
(§1) The inhibitory activity of the compounds according to the present invention towards fMLP- or CXCL8-induced chemotaxiswas evaluated following methods described in the literature (Giordano, C. et al., Bioorg. Med. Chem. 2006, 14, 2642 and documents cited in such article).
(§2) Cells were obtained from blood of healthy subjects and human peripheral blood neutrophils were purified by using the standard techniques of dextran sedimentation (Pharmacia, Uppsala, Sweden), centrifugation on Ficoll-Paque (Pharmacia) and hypotonic lysis of contaminating red blood cells. The cells were washed twice and resuspended in Krebs-Ringer (KRPG) phosphate, pH 7.4, at a final concentration of 50 x 10^6 cells/ml and kept at room temperature until used. The neutrophils were 98-100% viable, as determined using the Trypan blue exclusion test.
(§3) The f-MLP-OMe and the compounds to be tested (10-^2M) were dissolved in dimethylsulfoxide (DMSO) while CXCL8 (10^-5 M) was dissolved in water. All solutions were diluted in KRPG before use to obtain the final concentration required by the experimental protocol.
(§4) A random locomotion test was carried out with a 48-well microchemotaxis chamber (Bio Probe, Milan) and migration into the filter was evaluated by the leading-front method (Gennari, C. et al, Eur. J. Org. Chem. (1998), p. 945) by estimating the distance in micrometres which the leading edge of the cell migrated. The actual control random movement is 35 ± 3 µm SE of six separate experiments carried out in duplicate.
(§5) The directional movement or chemotaxis was measured with the same chamber used for the random locomotion, adding fMLP-OMe 10^-9 M or CXCL8 10^-8 M in the lower compartment.
(§6) Each compound to be tested was added in the upper compartment of the chemotaxis chamber, diluted at concentrations varying from 10^-15 to 10^-5 M with KRPG containing 1 mg/ml of bovine serum albumin (BSA; Orha Behringwerke, Germany).
(§7) The neutrophils were pre-incubated with the compounds to be tested ten minutes before the functional test. The data was expressed in terms of chemotactic index (C.I.), which is the ratio (migration towards test attractant - migration towards the buffer)/migration towards the buffer.
(§8) The antagonism was measured as C.I. in the absence (100%) and in the presence of the compound to be tested at different concentrations. CI50 values were calculated from the sigmoid dose-response curve by a nonlinear regression analysis (Graph Pad Prism, San Diego, USA).
(§9) The values are means of six separate experiments carried out twice. The standard errors are in the range of 0.02-0.09 C.I.

Test [2] shares this test system. Put plainly: Inhibition of IL8 (CXCL8)-induced neutrophil chemotaxis (48-well microchemotaxis chamber, leading-front method). It counts as cell-based. The note with it: CXCL8 10^-8 M in lower compartment, neutrophils pre-incubated ten minutes with compound, means of six experiments, read-out: Inhibition of the migration of neutrophils induced by IL8 CI50. On the procedure:
as §1, §2, §3, §4, §5, §6, §7, §8, §9

Where [3] appears, read: Homo sapiens, Neutrophil, fMLP-OMe 10^-9 M in lower compartment, neutrophils pre-incubated ten minutes with compound, means of six experiments.
The mark [4] stands for this setting: fMLP-OMe 10^-9 M in lower compartment, neutrophils pre-incubated ten minutes with compound, means of six experiments.
The mark [5] stands for this setting: Homo sapiens, Neutrophil, fMLP-OMe 10^-9 M, unit µM, highest tested concentration 10^-5 M.

As for `CCOC(=O)c1cnn(CC(O)CC)c1NC(=O)Nc1cccc(F)c1` (centres unmarked) [Im, 1-(2-hydroxybutyl)-5-[3-(3-fluorophenyl)ureido]-1H-pyrazole-4-carboxylic acid ethyl ester], the IC50 in test [1] (setting [3]) stood at 0.00019 ± 1e-05 µM; in test [2] (Homo sapiens, Neutrophil), 0.36 ± 0.06 nM. Regarding `CCCC(O)Cn1ncc(C(=O)OCC)c1NC(=O)NN1CCN(Cc2ccccc2)CC1` (centres unmarked) [Ir, 1-(2-hydroxypentyl)-5-[3-(4-benzyl)piperazinylureido)-1H-pyrazole-4-carboxylic acid ethyl ester], the IC50 in test [1] (setting [4]) stood at 0.0011 ± 0.0001 µM; in test [2] it was 0.09 ± 0.004 nM. As for `CCOC(=O)c1cnn(CC(C)O)c1NC(=O)NC(C)C` (centres unmarked) [Ib, 1-(2-hydroxypropyl)-5-(3-isopropylureido)-1H-pyrazole-4-carboxylic acid ethyl ester], the IC50 in test [1] (setting [3]) stood at 0.09 ± 0.0093 µM.

`CCOC(=O)c1cnn(CC(C)O)c1NC(=O)Nc1ccccc1F` (centres unmarked) [Ie, 1-(2-hydroxypropyl)-5-[3-(2-fluorophenyl)ureido]-1H-pyrazole-4-carboxylic acid ethyl ester]: the IC50 in test [1] (setting [3]) is 0.1 ± 0.0103 µM. Take `CCOC(=O)c1cnn(CC(C)O)c1NC(=O)NN1CCN(Cc2ccccc2)CC1` (centres unmarked) [Id, 1-(2-hydroxypropyl)-5-[3-(4-benzyl)piperazinylureido]-1H-pyrazole-4-carboxylic acid ethyl ester]: the “Percentage in brackets after the fMLP CI50 bound” value in test [1] (fMLP-OMe 10^-9 M) was found to be 63%. The IC50 in test [1] (fMLP-OMe 10^-9 M, unit µM, highest tested concentration 10^-5 M) was above 10 µM. Regarding `CCOC(=O)c1cnn(CC(O)CC)c1NC(=O)NC(C)C` (centres unmarked) [Ii, 1-(2hydroxybutyl)-5-(3-isopropylureido)-1H-pyrazole-4-carboxylic acid ethyl ester], the IC50 is above 10 µM in test [1] (setting [5]) and 0.0042 ± 0.0007 nM in test [2] (Homo sapiens, Neutrophil). The “Percentage in brackets after the fMLP CI50 bound” value in test [1] (fMLP-OMe 10^-9 M) was found to be 52%. Take `CCOC(=O)c1cnn(CC(O)CC)c1NC(=O)Nc1cccc2ccccc12` (centres unmarked) [Io, 1-(2-hydroxybutyl)-5-[3-(1-naphthyl)ureido]-1H-pyrazole-4-carboxylic acid ethyl ester]: the IC50 in test [1] (setting [3]) was determined as 0.012 ± 0.0012 µM; in test [2] (Homo sapiens, Neutrophil), 9.6 ± 1 nM. As to `CCOC(=O)c1cnn(CC(O)CC)c1NC(=O)Nc1ccccc1F` (centres unmarked) [Il, 1-(2-hydroxybutyl)-5-[3-(2-fluorophenyl)ureido]-1H-pyrazole-4-carboxylic acid ethyl ester], the IC50 in test [1] (setting [3]) was 0.12 ± 0.012 µM; in test [2] (Homo sapiens, Neutrophil) it was 0.0016 ± 0.0002 nM. Regarding `CCOC(=O)c1cnn(CC(C)O)c1NC(=O)Nc1cccc2ccccc12` (centres unmarked) [Ih, 1-(2-hydroxypropyl)-5-[3-(1-naphthyl)ureido]-1H-pyrazole-4-carboxylic acid ethyl ester], the IC50 in test [1] (setting [3]) came out at 0.0098 ± 0.0009 µM.

As to `CCOC(=O)c1cnn(CC(O)CC)c1NC(=O)NCc1ccccc1` (centres unmarked) [Ij, 1-(2-hydroxybutyl)-5-(3-benzylureido)-1H-pyrazole-4-carboxylic acid ethyl ester], the IC50 in test [1] (setting [5]) was above 10 µM; in test [2] (Homo sapiens, Neutrophil), 0.0074 ± 0.0002 nM. For the same molecule, in test [1] (fMLP-OMe 10^-9 M), the “Percentage in brackets after the fMLP CI50 bound” value is listed as 54%.

`CCOC(=O)c1cnn(CC(C)O)c1NC(=O)Nc1cccc(F)c1` (centres unmarked) [If, 1-(2-hydroxypropyl)-5-[3-(3-fluorophenyl)ureido]-1H-pyrazole-4-carboxylic acid ethyl ester]: the IC50 in test [1] (setting [5]) is above 10 µM. The “Percentage in brackets after the fMLP CI50 bound” value in test [1] (fMLP-OMe 10^-9 M) was 60%.

Take `CCOC(=O)c1cnn(CC(C)O)c1NC(=O)NCc1ccccc1` (centres unmarked) [Ic, 1-(2-hydroxypropyl)-5-(3-benzylureido)-1H-pyrazole-4-carboxylic acid ethyl ester]: the IC50 in test [1] (setting [3]) is 0.015 ± 0.0011 µM. As for `COC(=O)[C@H](Cc1ccccc1)NC(=O)[C@H](CC(C)C)NC(=O)[C@H](CCSC)NC=O` [fMLP-OMe], the “chemotactic index (C.I.)” value in test [1] (chemoattractant alone at 10^-9) stood at 1.2. `CCOC(=O)c1cnn(CC(O)CC)c1NC(=O)NN1CCN(Cc2ccccc2)CC1` (centres unmarked) [Ik, 1-(2-hydroxybutyl)-5-[3-(4-benzyl)piperazinylureido)-1H-pyrazole-4-carboxylic acid ethyl ester]: the IC50 in test [1] (setting [4]) came to 2 ± 0.2 µM.

In the case of `CCOC(=O)c1cnn(CC(O)c2ccccc2)c1NC(=O)Nc1cccc2ccccc12` (centres unmarked) [Ia, 1-(2-hydroxy-2-phenylethyl)-5-[3-(1-naphthyl)ureido]-1H-pyrazole-4-carboxylic acid ethyl ester], the IC50 in test [1] (setting [3]) amounted to 0.0078 ± 0.00052 µM; in test [2] (Homo sapiens, Neutrophil), 0.0076 ± 0.001 nM. For `CCOC(=O)c1cnn(CC(O)CC)c1NC(=O)Nc1ccc(F)cc1` (centres unmarked) [In, 1-(2-hydroxybutyl)-5-[3-(4-fluorophenyl)ureido]-1H-pyrazole-4-carboxylic acid ethyl ester] the same measures were 0.0032 ± 0.0004 µM and 1.9 ± 0.13 nM. Consider `CCOC(=O)c1cnn(CC(C)O)c1NC(=O)Nc1ccc(F)cc1` (centres unmarked) [Ig, 1-(2-hydroxypropyl)-5-[3-(4-fluorophenyl)ureido]-1H-pyrazole-4-carboxylic acid ethyl ester], for which the IC50 in test [1] (setting [5]) was above 10 µM; in test [2] (Homo sapiens, Neutrophil) it was 0.2 ± 0.06 nM. Further, the “Percentage in brackets after the fMLP CI50 bound” value in test [1] (fMLP-OMe 10^-9 M) is recorded as 55%. For the molecule `CCCC(O)Cn1ncc(C(=O)OCC)c1NC(=O)NCc1ccccc1` (centres unmarked) [Iq, 1-(2-hydroxypentyl)-5-(3-benzylureido)-1H-pyrazole-4-carboxylic acid ethyl ester], the IC50 was 0.00043 ± 5e-05 µM in test [1] (setting [3]) and 0.0032 ± 0.0001 nM in test [2] (Homo sapiens, Neutrophil). For `CCCC(O)Cn1ncc(C(=O)OCC)c1NC(=O)NC(C)C` (centres unmarked) [Ip, 1-(2-hydroxypentyl)-5-(3-isopropylureido)-1H-pyrazole-4-carboxylic acid ethyl ester], the IC50 in test [1] (setting [3]) was determined as 0.02 ± 0.0022 µM; in test [2] (Homo sapiens, Neutrophil), 1 ± 0.05 nM.
